According to patent US20060069132A1, “Azolecarboxamide herbicides” (priority 2004, published 2006):

Tests used:
rice = experiment: Test C flooded paddy test; assay type: in vivo, Oryza sativa
How it was run: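 Injury scored visually against controls on a 0 (no effect) to 100 (complete control) scale, 12 to 14 days after treatment in greenhouse. Flooded paddy plants treated at 2-leaf stage; postemergence plants at 1- to 4-leaf stage, 2 to 18 cm tall.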

woolly cupgrass = experiment: Test C pre-/postemergence herbicide test; assay type: in vivo, Eriochloa villosa; conditions: for Cupgrass, Woolly plant response rating: 500 g ai/ha
How it was run: (§1)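 Pre/post spray; non-phytotoxic solvent + surfactant. Post-timing 1–4 leaves, 2–18 cm. Read-out: visual % control vs untreated, day 12–14, greenhouse.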

[1] = tested on: common (oilseed) sunflower; experiment: Test C pre-/postemergence herbicide test; assay type: in vivo, Helianthus annuus; conditions: for Plant response rating (0 = no effect, 100 = complete control), Sunflower: 62 g ai/ha; for Plant response rating (0 = no effect, 100 = complete control), Sunflower / Plant response rating, Sunflower: preemergence
How it was run: as §1

chickweed = experiment: Test C postemergence herbicide test; assay type: in vivo, Stellaria media
How it was run: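 Ratings (0 = no effect, 100 = complete control) come from visual comparison with untreated plants after 12 to 14 days in the greenhouse. Treatment was postemergence at the 1- to 4-leaf stage (2–18 cm), or at the 2-leaf stage for the flooded paddy barnyardgrass.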

barnyardgrass = experiment: Test A pre-/postemergence herbicide test; assay type: in vivo, Echinochloa crus-galli
How it was run: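 Greenhouse injury scoring (0–100, complete control = 100) at approximately ten days follows simultaneous pre- and postemergence application. Soil received a directed spray after seeding; seedlings of 2–10 cm at the one- to two-leaf stage were sprayed to runoff.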

Surinam grass = experiment: Test C pre-/postemergence herbicide test; assay type: in vivo, Urochloa decumbens; conditions: for Surinam Grass plant response rating: 500 g ai/ha
How it was run: as §1

eastern black nightshade = experiment: Test C pre-/postemergence herbicide test; assay type: in vivo, Solanum ptycanthum; conditions: for Plant response rating (0 = no effect, 100 = complete control), Nightshade: 62 g ai/ha; for Plant response rating (0 = no effect, 100 = complete control), Nightshade / Plant response rating, Nightshade: preemergence
How it was run: as §1

kochia = experiment: Test C pre-/postemergence herbicide test; assay type: in vivo, Kochia scoparia
How it was run: as §1

corn = experiment: Test C pre-/postemergence herbicide test; assay type: in vivo, Zea mays; conditions: for Corn plant response rating: 500 g ai/ha
How it was run: as §1

johnsongrass = experiment: Test C pre-/postemergence herbicide test; assay type: in vivo, Sorghum halepense; conditions: for Johnsongrass plant response rating: 500 g ai/ha
How it was run: as §1

lambsquarters = experiment: Test C pre-/postemergence herbicide test; assay type: in vivo, Chenopodium album; conditions: for Lambsquarters plant response rating: 500 g ai/ha
How it was run: as §1

cocklebur = experiment: Test C pre-/postemergence herbicide test; assay type: in vivo, Xanthium strumarium; conditions: for Cocklebur plant response rating: 500 g ai/ha
How it was run: as §1

[2] = 125 g ai/ha, scale 0 (no effect) to 100 (complete control), visual, 12 to 14 days, preemergence
[3] = 250 g ai/ha, scale 0 to 100 (0 no effect, 100 complete control), visual, 12 to 14 days, preemergence
[4] = Postemergence, 250 g ai/ha, scale 0 to 100, 0 no effect, 100 complete control
[5] = Preemergence, scale 0 to 100, 0 no effect, 100 complete control
[6] = postemergence, 125 g ai/ha, scale 0 to 100
[7] = postemergence, 62 g ai/ha, scale 0 to 100
[8] = 125 g ai/ha, scale 0 (no effect) to 100 (complete control), visual, 12 to 14 days
[9] = Preemergence, 500 g ai/ha, scale 0 to 100, 0 no effect, 100 complete control
[10] = Postemergence, 500 g ai/ha, 0 to 100 scale, 0 no effect, 100 complete control
[11] = Postemergence, 2000 g ai/ha, 0 to 100 scale, 0 no effect, 100 complete control
[12] = Preemergence, 500 g ai/ha, visual rating, 0 to 100 scale (0 no effect, 100 complete control)
[13] = 31 g ai/ha, preemergence, scale 0 to 100
[14] = 250 g ai/ha, scale 0 to 100 (0 no effect, 100 complete control), visual, 12 to 14 days
[15] = postemergence, 31 g ai/ha, scale 0 to 100

SMILES: CCn1nc(C(C)(C)C)cc1C(=O)Nc1cccc(C(=O)NC2CC2)n1 [Compound 146]
- Rice plant response rating (rice; 62 g ai/ha, scale 0 to 100 (0 no effect, 100 complete control)): 0
- Rice plant response rating (rice; 125 g ai/ha, scale 0 to 100 (0 no effect, 100 complete control)): 0
- Rice plant response rating (rice; 250 g ai/ha, scale of 0 to 100, 0 is no effect, 100 is complete control): 0
- Plant response rating, Rice (rice; 500 g ai/ha, visual rating after 12 to 14 days, scale 0 to 100 (0 no effect, 100 complete control)): 20
- Plant response rating (0 = no effect, 100 = complete control), Cupgrass, Woolly (woolly cupgrass; 62 g ai/ha, preemergence): 0
- Plant response rating, Cupgrass, Woolly (woolly cupgrass; [2]): 0
- Plant response rating, Cupgrass, Woolly (woolly cupgrass; [3]): 0
- Cupgrass, Woolly plant response rating (woolly cupgrass; Postemergence, scale 0 to 100): 30
- Plant response rating, Cupgrass, Woolly (woolly cupgrass; [4]): 30
- Cupgrass, Woolly plant response rating (woolly cupgrass; [5]): 0
- Plant response rating, Cupgrass, Woolly (woolly cupgrass; [6]): 10
- Plant response rating, Cupgrass, Woolly (woolly cupgrass; [7]): 10
- Plant response rating (0 = no effect, 100 = complete control), Sunflower [1]: 0
- Plant response rating, Sunflower [1, 8]: 0
- Sunflower plant response rating [1, 9]: 0
- Plant response rating, Chickweed (chickweed; [4]): 100
- Plant response rating, Chickweed (chickweed; [6]): 80
- Plant response rating, Chickweed (chickweed; [7]): 10
- Barnyardgrass plant response rating (barnyardgrass; [10]): 50
- Plant response rating, Barnyardgrass (barnyardgrass; [11]): 75
- Barnyardgrass plant response rating (barnyardgrass; [12]): 70
- Barnyardgrass plant response rating (barnyardgrass; Preemergence, 2000 g ai/ha, visual rating, 0 to 100 scale (0 no effect, 100 complete control)): 80
- Plant response rating (0 = no effect, 100 = complete control), Surinam Grass (Surinam grass; 62 g ai/ha, preemergence): 0
- Plant response rating, Surinam Grass (Surinam grass; [2]): 0
- Surinam Grass plant response rating (Surinam grass; Postemergence, scale 0 to 100): 20
- Plant response rating, Surinam Grass (Surinam grass; [4]): 0
- Surinam Grass plant response rating (Surinam grass; [5]): 50
- Plant response rating, Surinam Grass (Surinam grass; [6]): 0
- Plant response rating, Surinam Grass (Surinam grass; [7]): 0
- Plant response rating (0 = no effect, 100 = complete control), Nightshade (eastern black nightshade): 50
- Plant response rating, Nightshade (eastern black nightshade; [8]): 60
- Nightshade plant response rating (eastern black nightshade; [9]): 100
- Plant response rating (0 = no effect, 100 = complete control), Kochia (kochia; 62 g ai/ha, preemergence): 50
- Plant response rating, Kochia (kochia; [2]): 50
- Plant response rating, Kochia (kochia; [4]): 20
- Kochia plant response rating (kochia; [9]): 100
- Plant response rating, Kochia (kochia; [7]): 5
- Plant response rating (0 = no effect, 100 = complete control), Corn (corn; 62 g ai/ha, preemergence): 0
- Plant response rating, Corn (corn; [2]): 0
- Plant response rating, Corn (corn; [3]): 10
- Corn plant response rating (corn; Postemergence, scale 0 to 100): 30
- Plant response rating, Corn (corn; [4]): 10
- Corn plant response rating (corn; [5]): 30
- Plant response rating, Corn (corn; [6]): 5
- Plant response rating, Corn (corn; [7]): 5
- Plant response rating, Johnsongrass (johnsongrass; [2]): 30
- Johnsongrass plant response rating (johnsongrass; Postemergence, scale 0 to 100): 0
- Plant response rating, Johnsongrass (johnsongrass; [4]): 0
- Johnsongrass plant response rating (johnsongrass; [5]): 70
- Plant response rating, Johnsongrass (johnsongrass; [6]): 0
- Plant response rating, Johnsongrass (johnsongrass; [7]): 0
- Plant response rating (0 = no effect, 100 = complete control), Lambsquarters (lambsquarters; 62 g ai/ha, preemergence): 85
- Plant response rating, Lambsquarters (lambsquarters; [2]): 90
- Lambsquarters plant response rating (lambsquarters; Postemergence, scale 0 to 100): 100
- Plant response rating, Lambsquarters (lambsquarters; [4]): 100
- Lambsquarters plant response rating (lambsquarters; [5]): 100
- Plant response rating, Lambsquarters (lambsquarters; [6]): 80
- Plant response rating, Lambsquarters (lambsquarters; [7]): 40
- Plant response rating (0 = no effect, 100 = complete control), Cocklebur (cocklebur; 62 g ai/ha, preemergence): 0
- Plant response rating, Cocklebur (cocklebur; [2]): 0
- Plant response rating, Cocklebur (cocklebur; [3]): 0
- Cocklebur plant response rating (cocklebur; Postemergence, scale 0 to 100): 20
- Plant response rating, Cocklebur (cocklebur; [4]): 10
- Cocklebur plant response rating (cocklebur; [5]): 0
- Plant response rating, Cocklebur (cocklebur; [6]): 5
- Plant response rating, Cocklebur (cocklebur; [7]): 5

SMILES: CCn1nc(C(C)(C)C)cc1C(=O)Nc1ccc(F)c(C(=O)NCCF)c1 [Compound 60]
- Plant response rating, Cupgrass, Woolly (woolly cupgrass; [13]): 0
- Plant response rating (0 = no effect, 100 = complete control), Cupgrass, Woolly (woolly cupgrass; 62 g ai/ha, preemergence): 0
- Plant response rating, Cupgrass, Woolly (woolly cupgrass; [2]): 10
- Plant response rating, Cupgrass, Woolly (woolly cupgrass; [3]): 70
- Plant response rating, Cupgrass, Woolly (woolly cupgrass; [4]): 5
- Plant response rating, Cupgrass, Woolly (woolly cupgrass; [6]): 5
- Plant response rating, Cupgrass, Woolly (woolly cupgrass; [7]): 0
- Plant response rating, Sunflower ([1]; 31 g ai/ha, scale 0 to 100): 0
- Plant response rating (0 = no effect, 100 = complete control), Sunflower [1]: 0
- Plant response rating, Sunflower [1, 8]: 0
- Plant response rating, Sunflower [1, 14]: 0
- Plant response rating, Chickweed (chickweed; [4]): 10
- Plant response rating, Chickweed (chickweed; [6]): 10
- Plant response rating, Chickweed (chickweed; [15]): 5
- Plant response rating, Chickweed (chickweed; [7]): 5
- Plant response rating, Barnyardgrass (barnyardgrass; [10]): 35
- Plant response rating, Barnyardgrass (barnyardgrass; [11]): 70
- Barnyardgrass plant response rating (barnyardgrass; [12]): 50
- Barnyardgrass plant response rating (barnyardgrass; Preemergence, 2000 g ai/ha, 0 to 100 scale, 0 no effect, 100 complete control): 85
- Plant response rating, Surinam Grass (Surinam grass; [13]): 0
- Plant response rating (0 = no effect, 100 = complete control), Surinam Grass (Surinam grass; 62 g ai/ha, preemergence): 0
- Plant response rating, Surinam Grass (Surinam grass; [2]): 0
- Plant response rating, Surinam Grass (Surinam grass; [3]): 50
- Plant response rating, Surinam Grass (Surinam grass; [4]): 5
- Plant response rating, Surinam Grass (Surinam grass; [6]): 5
- Plant response rating, Surinam Grass (Surinam grass; [7]): 5
- Plant response rating, Nightshade (eastern black nightshade; 31 g ai/ha, scale 0 to 100): 10
- Plant response rating (0 = no effect, 100 = complete control), Nightshade (eastern black nightshade): 30
- Plant response rating, Nightshade (eastern black nightshade; [8]): 90
- Plant response rating, Nightshade (eastern black nightshade; [14]): 90
- Plant response rating, Kochia (kochia; [13]): 80
- Plant response rating (0 = no effect, 100 = complete control), Kochia (kochia; 62 g ai/ha, preemergence): 80
- Plant response rating, Kochia (kochia; [2]): 90
- Plant response rating, Kochia (kochia; [3]): 90
- Plant response rating, Kochia (kochia; [4]): 20
- Plant response rating, Kochia (kochia; [6]): 20
- Plant response rating, Kochia (kochia; [7]): 10
- Plant response rating, Corn (corn; [13]): 0
- Plant response rating (0 = no effect, 100 = complete control), Corn (corn; 62 g ai/ha, preemergence): 0
- Plant response rating, Corn (corn; [2]): 0
- Plant response rating, Corn (corn; [3]): 0
- Plant response rating, Corn (corn; [4]): 0
- Plant response rating, Corn (corn; [6]): 0
- Plant response rating, Corn (corn; [7]): 0
- Plant response rating, Johnsongrass (johnsongrass; [13]): 5
- Plant response rating (0 = no effect, 100 = complete control), Johnsongrass (johnsongrass; 62 g ai/ha, preemergence): 10
- Plant response rating, Johnsongrass (johnsongrass; [2]): 50
- Plant response rating, Johnsongrass (johnsongrass; [3]): 60
- Plant response rating, Johnsongrass (johnsongrass; [4]): 0
- Plant response rating, Johnsongrass (johnsongrass; [6]): 0
- Plant response rating, Johnsongrass (johnsongrass; [7]): 0
- Plant response rating, Lambsquarters (lambsquarters; [13]): 90
- Plant response rating (0 = no effect, 100 = complete control), Lambsquarters (lambsquarters; 62 g ai/ha, preemergence): 100
- Plant response rating, Lambsquarters (lambsquarters; [2]): 100
- Plant response rating, Lambsquarters (lambsquarters; [3]): 100
- Plant response rating, Lambsquarters (lambsquarters; [4]): 70
- Plant response rating, Lambsquarters (lambsquarters; [6]): 30
- Plant response rating, Lambsquarters (lambsquarters; [7]): 10
- Plant response rating, Cocklebur (cocklebur; [13]): 0
- Plant response rating (0 = no effect, 100 = complete control), Cocklebur (cocklebur; 62 g ai/ha, preemergence): 0
- Plant response rating, Cocklebur (cocklebur; [2]): 0
- Plant response rating, Cocklebur (cocklebur; [3]): 5
- Plant response rating, Cocklebur (cocklebur; [4]): 10
- Plant response rating, Cocklebur (cocklebur; [6]): 10
- Plant response rating, Cocklebur (cocklebur; [15]): 10
- Plant response rating, Cocklebur (cocklebur; [7]): 10
